Where “and” joins values, the source holds several entries; their conditions need not be identical. Equal entries are not always repeated. Where two headings read alike, the source gives them in different places.
Target: T1, EphrinB2-EphB1 (Homo sapiens, UniProt P54762)
T1 construct: soluble human EphB1-His, EphB2-His, and EphB4-His ectodomains; commercially available human EphrinB1-Fc (EB1), EphrinB2-Fc (EB2), and EphrinB3-Fc (EB3) ectodomain proteins; purchased
T1 sequence (P54762 18-540 limits assumed): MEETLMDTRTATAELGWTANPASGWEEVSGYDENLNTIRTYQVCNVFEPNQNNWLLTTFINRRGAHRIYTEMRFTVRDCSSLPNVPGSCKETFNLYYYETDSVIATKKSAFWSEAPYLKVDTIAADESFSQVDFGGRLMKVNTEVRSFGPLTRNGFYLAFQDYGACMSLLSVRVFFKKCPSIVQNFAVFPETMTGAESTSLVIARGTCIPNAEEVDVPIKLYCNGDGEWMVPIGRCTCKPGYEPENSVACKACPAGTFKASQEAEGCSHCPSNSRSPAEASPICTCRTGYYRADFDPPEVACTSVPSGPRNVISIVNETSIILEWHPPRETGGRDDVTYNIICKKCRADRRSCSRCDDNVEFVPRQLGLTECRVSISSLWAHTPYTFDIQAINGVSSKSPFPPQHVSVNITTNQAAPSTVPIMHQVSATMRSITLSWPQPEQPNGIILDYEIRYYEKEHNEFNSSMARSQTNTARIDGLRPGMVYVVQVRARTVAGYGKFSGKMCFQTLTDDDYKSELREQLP
Experiment: Octet, immobilized human EphrinB2 binding to 50 nM soluble human EphB1
Protocol: Studies were conducted to confirm that A20 chemicals can effectively target the human Eph/Ephrin proteins. Octet system was used to first characterize the biophysical interactions of the human B class Eph and Ephrin proteins, and then was tested to assess how A20 may disrupt the interactions. Since the human and rodent proteins are highly conserved, and essentially identical, with EphB2 sharing 99.5% identity between human and mouse, with only 5 of ~1,000 amino acids different, any species-specific differences were not anticipated. Therefore, commercially available human EphrinB1-Fc (EB1), EphrinB2-Fc (EB2), and EphrinB3-Fc (EB3) ectodomain proteins were sparsely immobilized onto biosensors and then exposed to 50 nM of soluble human EphB1-His, EphB2-His, and EphB4-His ectodomains for 800 sec association and 1,000 sec dissociation steps with a total of nine different interactions analyzed. In the absence of A20 chemical, the immobilized human EphrinB proteins bound to their appropriate human EphB target proteins; with EphrinB1 only bound EphB1 and EphB2, EphrinB2 bound all three EphB1, EphB2, and EphB4, and EphrinB3 only bound EphB1 and EphB2 (FIG. 19A-19B).
The Octet studies shown in FIG. 19A-19F, and FIG. 20A-20C, and Table 2 using human proteins involved runs in which 1, 10, and 100 μM concentrations of the A20.2×HCl salt were included to determine how compound would affect binding kinetics. The sensorgrams for immobilized human EphrinB2 binding to EphB2 and EphB4 with 0, 1, 10, and 100 μM concentrations of A20 salt provide good examples of how the compound can alter Eph-Ephrin protein-protein interaction dynamics. […] This indicates the effective/relative IC50 for A20 is well below 1 μM (more accurate IC50 calculations are provided below). Notwithstanding, if just the sensorgram responses for 0 and 1 μM A20 are analyzed for absolute IC50 calculations (FIG. 21B), it is clear the compound is a much stronger inhibitor of the EB2-EphB2 interaction whether assessed near the end of association step (blue star), shortly after start of dissociation step (gold star), or by AUC, as all provide absolute IC50 values −1 μM. […] For EphB2-EB2, the slope went from 20° to 10° in the presence of A20 and for EphB4-EB2 from 5° to 3°. The reduced slope later in the association step indicates the A20 compound is specifically affecting accumulation of the stable tetramer.
Addition of compound also altered dissociation kinetics. […] This is referred to as the “unsurmountable” component of the Eph-Ephrin interaction (FIG. 21C). Additionally, AUC data was graphed for these runs (FIG. 21D). […] For EB2-EphB4, the dimer:tetramer ratio was 83:8 in the presence of A20 and was not much different from the no compound control run because it is already a strong dimer-driven interaction. […] A similar though more muted effect of A20 on tetramer accumulation was also observed for the other interactions of immobilized human EphrinB binding to soluble human EphB1 and EphB2 ectodomains (FIG. 22). The inhibitory effect of A20 is strongest on the EB2-EphB2 interaction with absolute IC50 reaching 1 μM, followed by the EB2-EphB1 interaction with absolute IC50-10 μM. […] The “unsurmountable” component of the EB2-EphB1 interaction was-50% of the tetramer species (14:41) whereas that for EB2-EphB2 interaction is-30%.
Further to the experiments listed above, a series of dose-response experiments were conducted to determine the IC50 of a selected A20 chemical (A20-1) on the kinetics of human EphrinB2 ligand ectodomain protein binding to its cognate human EphB1, EphB2, and EphB4 receptor ectodomain proteins. FIG. 74A-74C are representative sensorgrams showing the effect of 0, 0.1, 0.2, 0.4, 0.8, 1.6, and 3.2 μM, concentrations of the 2×HCl salt of A20-I along with a 10 μM max standard (also A20-1) on three different Ephrin-EphB interactions (e.g., EphB1 in FIG. 74A, EphB2 in FIG. 74B and EphB4 in FIG. 74C). […]

[1] = Table B, EphrinB2-EphB1, read-out: Relative Association IC50 (300 sec)

SMILES | IC50 (A20 salt, read-out: absolute IC50) | IC (maximum) (read-out: concentration producing maximum inhibition) | IC50 [1] | IC50 (Table B, EphrinB2-EphB1, read-out: Absolute AUC/IC50) | IC50 (Table B, EphrinB2-EphB1, read-out: Absolute Dissociation IC50 (450 sec)) | IC50 (Table B, EphrinB2-EphB1, read-out: Relative AUC/IC50) | IC50 (Table B, EphrinB2-EphB1, read-out: Relative Dissociation IC50 (450 sec))
Oc1c(Br)cc(CN2CCOCC2)c2cccnc12 [Compound 5, 7-bromo-5-(morpholinomethyl)quinolin-8-ol] | ~10000 nM | 10 µM |  |  |  |  | 
Oc1c(I)cc(CN2CCOCC2)c2cccnc12 [Compound 8, 4-((8-hydroxy-7-iodoquinolin-1-ium-5-yl)methyl)morpholin-4-ium chloride] |  |  | 1140 nM |  |  |  | 
Oc1c(Br)cc(CN2CCN(c3ccc(Br)cc3)CC2)c2cccnc12 [Compound 30, 7-bromo-5-((4-(4-bromophenyl)piperazin-1-ium-1-yl)methyl)-8-hydroxyquinolin-1-ium chloride] |  |  | 150 nM and 1100 nM | 160 nM | 330 nM | 60 nM | 70 nM

Reference: patent publication US20260374739A1, “SMALL MOLECULAR WEIGHT CHEMICAL COMPOUND TO ANTAGONIZE EPH-EPHRIN TETRAMERIZATION AND INHIBIT BIDIRECTIONAL SIGNALING” (THE BOARD OF REGENTS OF THE UNIVERSITY OF TEXAS SYSTEM, priority 2022, published 2026)
